Results reported in patent US6942876B2, “Analgesic compositions comprising anti-epileptic compounds and methods of using same” (Warner-Lambert Company, priority 1997, dated 2005).

Tested on: Carrageenan-induced thermal hyperalgesia
Assay: carrageenan rat footpad thermal hyperalgesia test (Hargreaves test)
Assay type: in vivo
Method: In this example, gabapentin, naproxen sodium, and the combination of gabapentin and naproxen sodium were evaluated in a standard rat carrageenan footpad thermal hyperalgesia assay. This assay utilizes an extract of seaweed (carrageenan) that, when injected into the footpad of test animals, causes a sterile inflammation, thereby lowering the pain threshold.
Male Sprague-Dawley rats (200-250 g, Sasco Laboratories) were used. Rats were group housed 5/cage on a 12-hour light:dark cycle with free access to food and water. Rats received only one dose of a drug or drug combination. All drugs were administered orally by gavage.
Dose-effect curves were first determined for (1) gabapentin by itself and (2) a prototypic NSAID (e.g., naproxen) by itself The ED50 value and 95% confidence limits of each agent was determined, as was the time to peak effect. […]
Carrageenan-induced thermal hyperalgesia: Rats were acclimated to a testing chamber whose glass floor was maintained at 25° C. Thirty minutes later, a high intensity beam of light was focused through the glass on the ventral surface of each hindpaw, and the latency to reflex withdrawal of the paw from the light beam was measured to the nearest 0.1 second. […]
Data were expressed as the mean ±SEM. […]

## COc1ccc2cc([C@H](C)C(=O)O)ccc2c1 [Naproxen sodium, naproxen sodium]
PO, gabapentin 3-100 mg/kg, naproxen sodium 0.3-30 mg/kg, fixed-ratio combinations at various dosages
  anti-hyperalgesic action: anti-hyperalgesic actions
Rattus norvegicus, 2 h, single drug, oral gavage, male Sprague-Dawley rats, paw flick latency 120 min after dosing, 95% confidence limits in parentheses
  ED50: 0.36 mg/kg
